Measurements from paper doi:10.1101/2020.03.08.982454v1 (biorxiv, 2020).
pKd: −log10 of the molar value.

Key:
KMP-11 [1] = target: KMP-11 (Leishmania donovani, UniProt Q36736, Y89W); experiment: biochemical
KMP-11 [2] = target: KMP-11 (Leishmania donovani, UniProt Q36736, Y5W); experiment: biochemical
KMP-11 [3] = target: KMP-11 (Leishmania donovani, UniProt Q36736, Y48W); experiment: biochemical
KMP-11 [4] = target: T1, KMP-11 (Leishmania donovani, UniProt Q36736); experiment: DiI C-18 fluorescence quenching, Hill fit; format: binding
T1 sequence (Q36736 1-92): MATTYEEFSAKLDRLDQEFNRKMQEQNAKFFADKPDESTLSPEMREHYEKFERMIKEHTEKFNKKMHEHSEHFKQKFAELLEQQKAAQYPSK

KMP-11 [5] = target: KMP-11 (Leishmania donovani, UniProt Q36736, F62W); experiment: biochemical

With `CCCCCCCCCCCCCCCC(=O)OC[C@H](COP(=O)([O-])OCC[N+](C)(C)C)OC(=O)CCCCCCCCCCCCCCC` [DPPC] the pKd (KMP-11 [1]) was 6.79, the pKd (KMP-11 [2]) was 7.71 and the pKd (KMP-11 [3]) was 6.93. The pKd (KMP-11 [4]) was 6.54 and the pKd (KMP-11 [5]) was 5.42.
